Measured values taken from ChEMBL document CHEMBL1128778 (Bioorg Med Chem Lett, 1995).

Assays:
Mus musculus [1] = species: Mus musculus; experiment: Compound was evaluated for its effective dose in the oral mouse cholesterol biosynthesis assay.; type: functional
Squalene synthase = target: T1, Squalene synthase (Rattus norvegicus, UniProt Q02769); experiment: Inhibitory activity against squalene synthase in rat liver; not active
T1 sequence (Q02769 whole entry): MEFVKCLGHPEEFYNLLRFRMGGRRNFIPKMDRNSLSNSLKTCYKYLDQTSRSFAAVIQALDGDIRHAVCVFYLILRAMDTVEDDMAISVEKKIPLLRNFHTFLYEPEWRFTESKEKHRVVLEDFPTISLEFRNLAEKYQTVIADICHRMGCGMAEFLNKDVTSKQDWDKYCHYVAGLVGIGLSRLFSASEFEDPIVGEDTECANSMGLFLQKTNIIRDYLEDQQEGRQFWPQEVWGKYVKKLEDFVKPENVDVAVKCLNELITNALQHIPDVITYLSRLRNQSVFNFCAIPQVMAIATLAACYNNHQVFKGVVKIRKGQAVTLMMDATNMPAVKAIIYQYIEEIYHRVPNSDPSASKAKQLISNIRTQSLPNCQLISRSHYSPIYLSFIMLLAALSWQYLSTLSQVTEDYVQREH

Mus musculus [2] = experiment: Ability to inhibit mouse hepatic cholesterol biosynthesis when dosed orally at 24 mg/kg; type: functional; details: route oral
Rattus norvegicus = species: Rattus norvegicus; experiment: Dose required for inhibition of cholesterol biosynthesis in rats was determined; type: functional
Mus musculus [3] = experiment: Ability to inhibit mouse hepatic cholesterol biosynthesis when dosed orally at 12 mg/kg; type: functional; details: route oral
Mus musculus [4] = experiment: Ability to inhibit mouse hepatic cholesterol biosynthesis when dosed orally at 6 mg/kg; type: functional; details: route oral
[5] = Mus musculus, po, read-out: ED50

Row | SMILES | ED50 (Mus musculus [1]; [5]) [mg/kg] | Ki (Squalene synthase) | other results
1 | C=C(CCC12OC(C(=O)O)C(O)(C(=O)O)C(C(=O)O)(O1)[C@H](OC(=O)/C=C/[C@@H](C)C[C@@H](C)CC)[C@H]2O)[C@@H](OC(C)=O)[C@H](C)Cc1ccccc1 (stereo partly drawn) [ZARAGOZIC ACID A] | 100 | – | –
2 | C=C(CCC12OC(C(=O)OCCC)C(O)(C(=O)OCOC(=O)C(C)(C)C)C(C(=O)O)(O1)[C@H](OC(=O)/C=C/[C@@H](C)C[C@@H](C)CC)[C@H]2O)[C@@H](OC(C)=O)[C@H](C)Cc1ccccc1 (stereo partly drawn) | 2 | Not Active | –
3 | C=C(CCC12OC(C(=O)O)C(O)(C(=O)OCOC(=O)C(C)(C)C)C(C(=O)O)(O1)[C@H](OC(=O)/C=C/[C@@H](C)C[C@@H](C)CC)[C@H]2O)[C@@H](OC(C)=O)[C@H](C)Cc1ccccc1 (stereo partly drawn) | – | – | inhibition in vivo at 24 mg/kg (Mus musculus [2]): 0%
4 | C=CCOC(=O)C1OC2(CCC(=C)[C@@H](OC(C)=O)[C@H](C)Cc3ccccc3)OC(C(=O)O)([C@H](OC(=O)/C=C/[C@@H](C)C[C@@H](C)CC)[C@H]2O)C1(O)C(=O)OCOC(=O)C(C)(C)C (stereo partly drawn) | 2 | Not Active | –
5 | C=C(CCC12OC(C(=O)OCCC(C)C)C(O)(C(=O)OCOC(C)=O)C(C(=O)O)(O1)[C@H](OC(=O)/C=C/[C@@H](C)C[C@@H](C)CC)[C@H]2O)[C@@H](OC(C)=O)[C@H](C)Cc1ccccc1 (stereo partly drawn) | 6 | – | –
6 | C=C(CCC12OC(C(=O)OCC(=O)OC(C)(C)C)C(O)(C(=O)OCOC(=O)C(C)(C)C)C(C(=O)O)(O1)[C@H](OC(=O)/C=C/[C@@H](C)C[C@@H](C)CC)[C@H]2O)[C@@H](OC(C)=O)[C@H](C)Cc1ccccc1 (stereo partly drawn) | – | Not Active | inhibition in vivo at 24 mg/kg (Mus musculus [2]): 45%
7 | C=C(CCC12OC(C(=O)OCC)C(O)(C(=O)OCOC(=O)C(C)(C)C)C(C(=O)O)(O1)[C@H](OC(=O)/C=C/[C@@H](C)C[C@@H](C)CC)[C@H]2O)[C@@H](OC(C)=O)[C@H](C)Cc1ccccc1 (stereo partly drawn) | 2.6 | Not Active | ED50 (Rattus norvegicus): 18 mg/kg
8 | C=C(CCC12OC(C(=O)OCCC(C)C)C(O)(C(=O)OCOC(=O)C(C)(C)C)C(C(=O)O)(O1)[C@H](OC(=O)/C=C/[C@@H](C)C[C@@H](C)CC)[C@H]2O)[C@@H](OC(C)=O)[C@H](C)Cc1ccccc1 (stereo partly drawn) | 9 | Not Active | ED50 (Mus musculus [1]): 9 mg/kg
9 | C=C(CCC12OC(C(=O)NCCOC)C(O)(C(=O)OCOC(=O)C(C)(C)C)C(C(=O)O)(O1)[C@H](OC(=O)/C=C/[C@@H](C)C[C@@H](C)CC)[C@H]2O)[C@@H](OC(C)=O)[C@H](C)Cc1ccccc1 (stereo partly drawn) | – | Not Active | inhibition in vivo at 12 mg/kg (Mus musculus [3]): 18%
10 | C=C(CCC12OC(C(=O)NC(C)C)C(O)(C(=O)OCOC(=O)C(C)(C)C)C(C(=O)O)(O1)[C@H](OC(=O)/C=C/[C@@H](C)C[C@@H](C)CC)[C@H]2O)[C@@H](OC(C)=O)[C@H](C)Cc1ccccc1 (stereo partly drawn) | – | – | inhibition in vivo at 24 mg/kg (Mus musculus [2]): 41%
11 | C=C(CCC12OC(C(=O)OCCCC)C(O)(C(=O)OCOC(=O)C(C)(C)C)C(C(=O)O)(O1)[C@H](OC(=O)/C=C/[C@@H](C)C[C@@H](C)CC)[C@H]2O)[C@@H](OC(C)=O)[C@H](C)Cc1ccccc1 (stereo partly drawn) | – | Not Active | inhibition in vivo at 6 mg/kg (Mus musculus [4]): 18%
12 | C=C(CCC12OC(C(=O)OC(C)C)C(O)(C(=O)OCOC(=O)C(C)(C)C)C(C(=O)O)(O1)[C@H](OC(=O)/C=C/[C@@H](C)C[C@@H](C)CC)[C@H]2O)[C@@H](OC(C)=O)[C@H](C)Cc1ccccc1 (stereo partly drawn) | 4 | Not Active | –
13 | C=C(CCC12OC(C(=O)OC)C(O)(C(=O)OCOC(=O)C(C)(C)C)C(C(=O)O)(O1)[C@H](OC(=O)/C=C/[C@@H](C)C[C@@H](C)CC)[C@H]2O)[C@@H](OC(C)=O)[C@H](C)Cc1ccccc1 (stereo partly drawn) | 3.3 | Not Active | –
14 | C=C(CCC12OC(C(=O)OCCOC)C(O)(C(=O)OCOC(=O)C(C)(C)C)C(C(=O)O)(O1)[C@H](OC(=O)/C=C/[C@@H](C)C[C@@H](C)CC)[C@H]2O)[C@@H](OC(C)=O)[C@H](C)Cc1ccccc1 (stereo partly drawn) | – | Not Active | inhibition in vivo at 6 mg/kg (Mus musculus [4]): 18%
15 | C=C(CCC12OC(C(=O)OCC(=O)OC)C(O)(C(=O)OCOC(=O)C(C)(C)C)C(C(=O)O)(O1)[C@H](OC(=O)/C=C/[C@@H](C)C[C@@H](C)CC)[C@H]2O)[C@@H](OC(C)=O)[C@H](C)Cc1ccccc1 (stereo partly drawn) | – | Not Active | inhibition in vivo at 6 mg/kg (Mus musculus [4]): 0%
